Test results reported in BindingDB's records for doi:10.1016/j.bmcl.2016.04.011 (The University of Jordan, 2016).

Experiments:
[1] = Inhibition of EGFR in human MDA231 cells assessed as growth inhibition after 24 hrs by MTT assay
[2] = Inhibition of PI3Kalpha in human HCT116 cells coexpressing PI3Kalpha H1047R mutant assessed as growth inhibition after 24 hrs by MTT assay

| SMILES | IC50 [1] [µM] | IC50 [2] [µM] |
| --- | --- | --- |
| CC(=O)c1ccc(NC(=O)c2cc3ccccc3[nH]2)cc1 | 50 | 61 |
| CC(=O)c1cccc(NC(=O)c2cc3ccccc3[nH]2)c1 | 57 | 64 |
| O=C(c1ccccc1)c1cccc(NC(=O)c2cc3ccccc3[nH]2)c1 | 45 | 55 |
| O=C(c1ccccc1)c1ccc(NC(=O)c2cc3ccccc3[nH]2)cc1 | 49 | 54 |

Compounds with a lower IC50 [1], results first:

| IC50 [1] [µM] | IC50 [2] [µM] | SMILES |
| --- | --- | --- |
| 38 | 44 | O=C(Nc1ccc(C(O)c2ccccc2)cc1)c1cc2ccccc2[nH]1 (stereo unspecified) |
| 34 | 38 | CC(O)c1cccc(NC(=O)c2cc3ccccc3[nH]2)c1 (stereo unspecified) |
| 35 | 37 | CC(O)c1ccc(NC(=O)c2cc3ccccc3[nH]2)cc1 (stereo unspecified) |
| 15 | 19 | O=C(Nc1cccc(C(O)c2ccccc2)c1)c1cc2ccccc2[nH]1 (stereo unspecified) |
